# Reference: US7411083B2, “Substituted acetic acid derivatives” (Wyeth, priority 2003, dated 2008)
# Molecular target: T1, recombinant human plasminogen activator inhibitor-1 (PAI-1) (Homo sapiens, UniProt P05121)
# T1 construct: purchased Molecular Innovations, Royal Oak, Mich
# Test: Screening for PAI-1 inhibition (residual tPA activity, Spectrozyme-tPA chromogenic substrate)
# Assay type: biochemical
# Conditions: test compound at 100 Um; pH 6.6 buffer, 140 nM PAI-1, 70 nM tPA
# Method: Screening for PAI-1 inhibition. Test compounds are dissolved in DMSO at a final concentration of 10 Mm, then diluted 100× in physiologic buffer. The inhibitory assay is initiated by the addition of the test compound (1-100 μM final concentration, maximum DMSO concentration of 0.2%) in a Ph 6.6 buffer containing 140 Nm recombinant human plasminogen activator inhibitor-1 (PAI-1; Molecular Innovations, Royal Oak, Mich.). Following a 1 hour incubation at room temperature, 70 Nm of recombinant human tissue plasminogen activator (Tpa) is added, and the combination of the test compound, PAI-1 and Tpa is incubated for an additional 30 minutes. Following the second incubation, Spectrozyme-Tpa (American Diagnostica, Greenwich, Conn.), a chromogenic substrate for Tpa, is added and absorbance read at 405 nm at 0 and 60 minutes. Relative PAI-1 inhibition is equal to the residual Tpa activity in the presence of the test compounds and PAI-1. Control treatments include the complete inhibition of Tpa by PAI-1 at the molar ratio employed (2:1), and the absence of any effect of the test compound on Tpa alone.
# T1 sequence (P05121 24-402): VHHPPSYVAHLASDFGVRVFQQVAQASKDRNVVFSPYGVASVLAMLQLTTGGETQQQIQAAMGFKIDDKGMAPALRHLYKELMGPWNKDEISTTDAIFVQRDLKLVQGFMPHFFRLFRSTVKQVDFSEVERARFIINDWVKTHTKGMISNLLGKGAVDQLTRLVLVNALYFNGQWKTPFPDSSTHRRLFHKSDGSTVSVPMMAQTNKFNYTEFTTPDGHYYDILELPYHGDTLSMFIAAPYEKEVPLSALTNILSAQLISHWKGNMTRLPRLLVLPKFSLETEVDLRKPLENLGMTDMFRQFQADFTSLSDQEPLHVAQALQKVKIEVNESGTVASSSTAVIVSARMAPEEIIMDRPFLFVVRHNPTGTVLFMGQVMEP
row,inhibition at 100 µM [%],Structure (SMILES)
1,62,"C#CCn1cc(/C=N/OCC(=O)O)c2cc(OCc3cccc(Cl)c3)ccc21 [Compound 38, [({(1E)-[5-[(3-chlorobenzyl)oxy]-1-(2-propynyl)-1H-indol-3-yl]methylidene}amino)oxy]acetic acid]"
2,48,"Cn1cc(/C=N/OCC(=O)O)c2cc(OCc3cccc(Cl)c3)ccc21 [Compound 39, {[((1E)-{5-[(3-chlorobenzyl)oxy]-1-methyl-1H-indol-3-yl}methylidene)amino]oxy}acetic acid]"
3,50,"C=CCn1cc(/C=N/OCC(=O)O)c2cc(OCc3ccccc3)ccc21 [Compound 40, [({(1E)-[1-allyl-5-(benzyloxy)-1H-indol-3-yl]methylidene}amino)oxy]acetic acid]"
4,96,"O=C(O)CO/N=C/c1cn(Cc2ccccc2)c2ccc(OCc3ccccc3)cc12 [Compound 41, [({(1E)-[1-benzyl-5-(benzyloxy)-1H-indol-3-yl]methylidene}amino)oxy]acetic acid]"
5,96,"C#CCn1cc(/C=N/OCC(=O)O)c2cc(OCc3cccc(C(F)(F)F)c3)ccc21 [Compound 42, ({[(1E)-(1-(2-propynyl)-5-{[3-(trifluoromethyl)benzyl]oxy}-1H-indol-3-yl)methylidene]amino}oxy)acetic acid]"
6,81,"Cn1cc(/C=N/OCC(=O)O)c2cc(OCc3cccc(C(F)(F)F)c3)ccc21 [Compound 43, ({[(1E)-(1-methyl-5-{[3-(trifluoromethyl)benzyl]oxy}-1H-indol-3-yl)methylidene]amino}oxy)acetic acid]"
7,83,"C#CCn1cc(/C=N/OCC(=O)O)c2cc(OCc3ccc(Cl)cc3)ccc21 [Compound 44, [({(1E)-[5-[(4-chlorobenzyl)oxy]-1-(2-propynyl)-1H-indol-3-yl]methylidene}amino)oxy]acetic acid]"
8,96,"C=CCn1cc(/C=N/OCC(=O)O)c2cc(OCc3ccc(Cl)cc3)ccc21 [Compound 45, {[((1E)-{1-allyl-5-[(4-chlorobenzyl)oxy]-1H-indol-3-yl}methylidene)amino]oxy}acetic acid]"
9,86,"O=C(O)CO/N=C/c1cn(Cc2ccccc2)c2ccc(OCc3ccc(Cl)cc3)cc12 [Compound 46, {[((1E)-{1-benzyl-5-[(4-chlorobenzyl)oxy]-1H-indol-3-yl}methylidene)amino]oxy}acetic acid]"
10,31,"Cn1cc(/C=N/OCC(=O)O)c2cc(OCc3ccc(Cl)cc3)ccc21 [Compound 47, {[((1E)-{5-[(4-chlorobenzyl)oxy]-1-methyl-1H-indol-3-yl}methylidene)amino]oxy}acetic acid]"
11,79,"C#CCn1cc(/C=N/OCC(=O)O)c2cc(OCc3ccccc3Cl)ccc21 [Compound 48, [({(1E)-[5-[(2-chlorobenzyl)oxy]-1-(2-propynyl)-1H-indol-3-yl]methylidene}amino)oxy]acetic acid]"
12,93,"C=CCn1cc(/C=N/OCC(=O)O)c2cc(OCc3ccccc3Cl)ccc21 [Compound 49, {[((1E)-{1-allyl-5-[(2-chlorobenzyl)oxy]-1H-indol-3-yl}methylidene)amino]oxy}acetic acid]"
13,31,"Cn1cc(/C=N/OCC(=O)O)c2cc(OCc3ccccc3Cl)ccc21 [Compound 50, {[((1E)-{5-[(2-chlorobenzyl)oxy]-1-methyl-1H-indol-3-yl}methylidene)amino]oxy}acetic acid]"
14,86,"C#CCn1cc(/C=N/OCC(=O)O)c2cc(OCc3ccc(Cl)c(Cl)c3)ccc21 [Compound 51, [({(1E)-[5-[(3,4-dichlorobenzyl)oxy]-1-(2-propynyl)-1H-indol-3-yl]methylidene}amino)oxy]acetic acid]"
15,72,"C=CCn1cc(/C=N/OCC(=O)O)c2cc(OCc3ccc(Cl)c(Cl)c3)ccc21 [Compound 52, {[((1E)-{1-allyl-5-[(3,4-dichlorobenzyl)oxy]-1H-indol-3-yl}methylidene)amino]oxy}acetic acid]"
16,76,"O=C(O)CO/N=C/c1cn(Cc2ccccc2)c2ccc(OCc3ccc(Cl)c(Cl)c3)cc12 [Compound 53, {[((1E)-{1-benzyl-5-[(3,4-dichlorobenzyl)oxy]-1H-indol-3-yl}methylidene)amino]oxy}acetic acid]"
17,91,"Cn1cc(/C=N/OCC(=O)O)c2cc(OCc3ccc(Cl)c(Cl)c3)ccc21 [Compound 54, {[((1E)-{5-[(3,4-dichlorobenzyl)oxy]-1-methyl-1H-indol-3-yl}methylidene)amino]oxy}acetic acid]"
18,81,"C=CCn1cc(/C=N/OCC(=O)O)c2cc(OCc3ccc4ccccc4c3)ccc21 [Compound 55, [({(1E)-[1-allyl-5-(2-naphthylmethoxy)-1H-indol-3-yl]methylidene}amino)oxy]acetic acid]"

row,inhibition at 100 µM [%],Structure (SMILES)
1,62,"O=C(O)CO/N=C/c1cn(Cc2ccccc2)c2ccc(OCc3ccc4ccccc4c3)cc12 [Compound 56, [({(1E)-[1-benzyl-5-(2-naphthylmethoxy)-1H-indol-3-yl]methylidene}amino)oxy]acetic acid]"
2,64,"Cn1cc(/C=N/OCC(=O)O)c2cc(OCc3ccc4ccccc4c3)ccc21 [Compound 57, [({(1E)-[1-methyl-5-(2-naphthylmethoxy)-1H-indol-3-yl]methylidene}amino)oxy]acetic acid]"
3,84,"O=C(O)CO/N=C/c1cccc(-c2cccc(OCc3ccc(C(F)(F)F)cc3)c2)c1 [Compound 58, ({[(1E)-(3′-{[4-(trifluoromethyl)benzyl]oxy}-1,1′-biphenyl-3-yl)methylidene]amino}oxy)acetic acid]"
4,63,"CC(C)(C)c1ccc(COc2cccc(-c3cccc(/C=N/OCC(=O)O)c3)c2)cc1 [Compound 59, {[((1E)-{3′-[(4-tert-butylbenzyl)oxy]-1,1′-biphenyl-3-yl}methylidene)amino]oxy}acetic acid]"
5,88,"O=C(O)CO/N=C/c1cccc(-c2cccc(OCc3ccc(Br)cc3)c2)c1 [Compound 60, {[((1E)-{3′-[(4-bromobenzyl)oxy]-1,1′-biphenyl-3-yl}methylidene)amino]oxy}acetic acid]"
6,74,"O=C(O)CO/N=C/c1cccc(-c2cccc(OCc3cc(C(F)(F)F)cc(C(F)(F)F)c3)c2)c1 [Compound 61, ({[(1E)-(3′-{[3,5-bis(trifluoromethyl)benzyl]oxy}-1,1′-biphenyl-3-yl)methylidene]amino}oxy)acetic acid]"
7,84,"O=C(O)CO/N=C/c1cccc(-c2cccc(OCc3cccc(Br)c3)c2)c1 [Compound 62, {[((1E)-{3′-[(3-bromobenzyl)oxy]-1,1′-biphenyl-3-yl}methylidene)amino]oxy}acetic acid]"
8,91,"O=C(O)CO/N=C/c1cccc(-c2cccc(OCc3cccc(Cl)c3)c2)c1 [Compound 63, {[((1E)-{3′-[(3-chlorobenzyl)oxy]-1,1′-biphenyl-3-yl}methylidene)amino]oxy}acetic acid]"
9,92,"O=C(O)CO/N=C/c1cccc(-c2cccc(OCc3ccccc3)c2)c1 [Compound 64, [({(1E)-[3′-(benzyloxy)-1,1′-biphenyl-3-yl]methylidene}amino)oxy]acetic acid]"
10,84,"O=C(O)CO/N=C/c1cccc(-c2cccc(OCc3cccc(C(F)(F)F)c3)c2)c1 [Compound 65, ({[(1E)-(3′-{[3-(trifluoromethyl)benzyl]oxy}-1,1′-biphenyl-3-yl)methylidene]amino}oxy)acetic acid]"
11,84,"O=C(O)CO/N=C/c1cccc(-c2cccc(OCc3ccc(Cl)cc3)c2)c1 [Compound 66, {[((1E)-{3′-[(4-chlorobenzyl)oxy]-1,1′-biphenyl-3-yl}methylidene)amino]oxy}acetic acid]"
12,87,"O=C(O)CO/N=C/c1cccc(-c2cccc(OCc3ccccc3Cl)c2)c1 [Compound 67, {[((1E)-{3′-[(2-chlorobenzyl)oxy]-1,1′-biphenyl-3-yl}methylidene)amino]oxy}acetic acid]"
13,83,"O=C(O)CO/N=C/c1cccc(-c2cccc(OCc3ccc(Cl)c(Cl)c3)c2)c1 [Compound 68, {[((1E)-{3′-[(3,4-dichlorobenzyl)oxy]-1,1′-biphenyl-3-yl}methylidene)amino]oxy}acetic acid]"
14,53,"O=C(O)CO/N=C/c1cccc(-c2cccc(OCc3ccc4ccccc4c3)c2)c1 [Compound 69, [({(1E)-[3′-(2-naphthylmethoxy)-1,1′-biphenyl-3-yl]methylidene}amino)oxy]acetic acid]"
15,83,"Cc1ccc(COc2cccc(-c3cccc(/C=N/OCC(=O)O)c3)c2)cc1 [Compound 70, {[((1E)-{3′-[(4-methylbenzyl)oxy]-1,1′-biphenyl-3-yl}methylidene)amino]oxy}acetic acid]"
16,85,"Cc1cccc(COc2cccc(-c3cccc(/C=N/OCC(=O)O)c3)c2)c1 [Compound 71, {[((1E)-{3′-[(3-methylbenzyl)oxy]-1,1′-biphenyl-3-yl}methylidene)amino]oxy}acetic acid]"
17,88,"O=C(O)CO/N=C/c1cccc(-c2cccc(OCc3c(Cl)cccc3Cl)c2)c1 [Compound 72, {[((1E)-{3′-[(2,6-dichlorobenzyl)oxy]-1,1′-biphenyl-3-yl}methylidene)amino]oxy}acetic acid]"
